{
  "source": "paper PMC6154719",
  "about": "(Molecules : A Journal of Synthetic Chemistry and Natural …, 2017)",
  "key": {"certain CYPs": {"system": "certain CYPs", "set-up": "method as in PMID 21287405", "settings": "read-out: IC50, inhibition of certain CYPs; cited from earlier work"}, "CYP2B/3A": {"system": "CYP2B/3A", "experiment": "CYP2B/3A (BROD activity, benzyloxyresorufin O-debenzylation) in human liver microsomes", "type": "in vitro ADME", "settings": "probe benzyloxyresorufin", "method": "(§1) Enzyme activities were assayed in human and rat liver cytosolic and microsomal fractions. The enzyme assays (each performed in 4–8 replicates) were repeated three times (HPLC measurement of CYP activities was repeated only twice, Table 3). Inhibition studies were carried out by incubation of specific substrates in the presence of sesquiterpenes (in the range 0–100 µM).\n(§2) Enzyme activities of individual CYP forms were measured according to established protocols. The following microsomal CYP activities were tested: CYP2A6, coumarin 7-hydroxylation; CYP2B6, 7-ethoxy-4-(trifluoromethyl)coumarin 7-deethylation, CYP2C9, diclofenac 4′-hydroxylation, CYP2C19 assay, S-mephenytoin 4′-hydroxylation, CYP2D6 on bufuralol 1′-hydroxylation, CYP2E1, chlorzoxazone 6-hydroxylation and CYP3A4, testosterone 6β-hydroxylation, and midazolam 1′-hydroxylation. Activities were measured using the Prominence HPLC system (Shimadzu, Kyoto, Japan), equipped with a LiChroCART 250-4 LiChrospher 100 RP-18 column or Chromolith®HighResolution RP-18 end-capped column (Merck, Darmstadt, Germany) and UV or fluorescence detection, according to the cited literature. Further incubation details are described either in the corresponding references, as well as in the papers from this laboratory e.g., [42, 43, 44]. CYP1A2, 7-ethoxyresorufin O-deethylation, and CYP3A4/2B6 (human), CYP2B1 (rat), benzyloxyresorufin O-debenzylation were measured using the microplate reader Tecan Infinite M200 (Tecan Group; Mannedorf, Switzerland).\nSesquiterpenes CNER, TNER and FAR, non-volatile liquids, were pipetted, and proper concentration was calculated according to density. All compounds were dissolved in DMSO. The final solvent concentration in the inhibition assays was 1%, which had no effect on the enzyme activity (data not shown). Non-enzymatic interference of sesquiterpenes with some compounds in the reaction mixtures (e.g., fluorescence enhancing or quenching) was considered and excluded. All experiments were performed in three replicates, if not stated otherwise.\n(§3) CNER, TNER and FAR at a fixed concentration of 100 µM were screened for inhibition of cytosolic AKR1A1, AKR1C, CBR1, NQO1, SULT, and GST, and microsomal CYPs and UGT. The degree of inhibition caused by sesquiterpenes was compared with non-inhibited control reactions, which contained solvent without sesquiterpenes.\n(§4) The concentration of sesquiterpenes required for 50% inhibition of enzyme activity, the IC50 value, was determined. Their final concentrations in the reaction mixture were proposed to cover the entire inhibitory range of these compounds (1–100 µM). The IC50 values for each sesquiterpene were determined by plotting sigmoidal dose response curves of specific enzyme activity vs. logarithm of sesquiterpene concentration using GraphPad Prism version 6.07 for Windows (GraphPad Software Inc., La Jolla, CA, USA).\n(§5) The kinetic inactivation study of the CYP1A2 (EROD activity) and CYP2B/3A (BROD activity), both in rat and human, with TNER, was performed to find out the mechanism of enzyme inhibition by this sesquiterpene. Mechanism of EROD and BROD inhibition was tested at the final ethoxyresorufin or benzyloxyresorufin concentrations 0.5–5.0 µM. The concentration of TNER was 5.0 µM.\n(§6) Experimental data were fitted to the Michaelis-Menten equation, basic kinetic parameters were determined using the program GraphPad Prism version 6.07 for Windows. The type of inhibition was estimated using a Lineweaver-Burk (double-reciprocal) plot."}, "HeLa": {"system": "HeLa", "set-up": "method as in earlier work", "settings": "HeLa cell line; cited from earlier work"}, "Jurkat": {"system": "Jurkat", "set-up": "method as in earlier work", "settings": "Jurkat cell line; cited from earlier work"}, "CYP3A4": {"system": "CYP3A4", "set-up": "method as in PMID 25858508", "settings": "human liver microsomes; cited from earlier work"}, "CYP1A2": {"target": "T1, CYP1A2 (Homo sapiens, UniProt P05177)", "T1 construct": "Frozen liver (both rat and human) was thawed; from tissue; host or cells: human liver microsomal fraction", "T1 sequence (P05177 1-516)": "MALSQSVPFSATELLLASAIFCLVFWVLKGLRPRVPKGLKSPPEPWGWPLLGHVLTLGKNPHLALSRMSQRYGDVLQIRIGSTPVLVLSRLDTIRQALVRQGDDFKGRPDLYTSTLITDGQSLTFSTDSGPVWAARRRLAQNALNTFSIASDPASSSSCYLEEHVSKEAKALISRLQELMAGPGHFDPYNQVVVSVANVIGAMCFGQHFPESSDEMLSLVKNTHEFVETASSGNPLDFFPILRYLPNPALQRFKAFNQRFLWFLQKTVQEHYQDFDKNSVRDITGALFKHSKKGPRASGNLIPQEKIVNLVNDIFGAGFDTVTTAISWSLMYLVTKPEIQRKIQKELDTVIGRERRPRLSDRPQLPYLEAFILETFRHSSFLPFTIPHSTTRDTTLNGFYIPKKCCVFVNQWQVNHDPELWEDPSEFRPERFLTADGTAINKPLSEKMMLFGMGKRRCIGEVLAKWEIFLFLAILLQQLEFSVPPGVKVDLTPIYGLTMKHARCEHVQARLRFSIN", "experiment": "CYP1A2 (EROD activity, 7-ethoxyresorufin O-deethylation) in human liver microsomes", "type": "in vitro ADME", "settings": "liver microsomes, probe 7-ethoxyresorufin; human, 5 µM inhibitor", "method": "as §1, §2\nSesquiterpenes CNER, TNER and FAR, non-volatile liquids, were pipetted, and proper concentration was calculated according to density. All compounds were dissolved in DMSO. […] All experiments were performed in three replicates, if not stated otherwise.\nas §3\nas §4, with “Their final concentrations in the reaction mixture were proposed to cover the entire inhibitory range of these compounds (1–100 µM).” left out\nas §5, §6"}},
  "data": [
    {"smiles": "CC1=CCC[C@]2(C)O[C@H]2CC(=C(C)C)C(=O)C1", "note": "[(4S,5S)-(+)-germacrone-4,5-epoxide]", "values": [
      {"measurement": "IC50", "setting": "certain CYPs", "result": 1000, "unit": "nM"}
    ]},
    {"smiles": "CC(=O)N1CCN(c2ccc(OCC3COC(Cn4ccnc4)(c4ccc(Cl)cc4Cl)O3)cc2)CC1", "note": "(stereo not shown) [KET, ketoconazole, reference compound]", "values": [
      {"measurement": "inhibition at 5 µM", "setting": "CYP2B/3A; liver microsomes, human, 5 µM inhibitor", "result": 66, "unit": "%"},
      {"measurement": "IC50", "setting": "CYP2B/3A; human liver microsomes", "result": 2680, "unit": "nM"}
    ]},
    {"smiles": "C=CC(C)(O)CC/C=C(\\C)CCC=C(C)C", "note": "(stereo not shown) [NER, Nerolidol]", "values": [
      {"measurement": "concentration with strong anti-tumor effects", "setting": "HeLa", "result": "less than 5 µM"},
      {"measurement": "concentration with strong anti-tumor effects", "setting": "Jurkat", "result": "less than 5 µM"}
    ]},
    {"smiles": "C=C1C(=O)O[C@@H]2C[C@@]3(C)CCC[C@H](C)C3=C[C@H]12", "note": "[alantolactone]", "values": [
      {"measurement": "IC50", "setting": "CYP3A4", "result": 3600, "unit": "nM"}
    ]},
    {"smiles": "O=c1cc(-c2ccccc2)oc2c1ccc1ccccc12", "note": "[ANF, α-naphthoflavone, reference compound]", "values": [
      {"measurement": "inhibition at 5 µM", "setting": "CYP1A2", "result": 92, "unit": "%"}
    ]}
  ]
}
